The values below come from patent US9439878B2, “Use of lumefantrine and related compounds in the treatment of cancer” (priority 2010, dated 2016).

The test system of test [1] is Ba/F3 cells expressing T315I mutated BCR-ABL. As to the kind of experiment: MTT cell viability assay, Ba/F3 cells expressing mutant Bcr-Abl (T315I). Particulars: for potency relative to chloroquine (cell viability): chloroquine 25 μM control. It counts as cell-based, Murine. From the text: (§1) A study conducted through the independent Cancer Therapy & Research Center, Institute for Drug Development at the University of Texas Health Science Center at San Antonio, Tex., evaluated lumefantrine as an autophagy inhibitor (i.e., “Lumefantrine Study”). […] 1; 110(1):313-22. Epub 2007 Mar. 15. PMID: 17363733”. Murine Ba/F3 cells that stably express wild-type BCR-ABL (p210) or the T315I mutated version of BCR-ABL, which confers resistance to imatinib and nilotinib were utilized for this study. Cells were propagated at 37° C. in a humidified atmosphere containing 5% carbon dioxide. Cell viability was determined using the MTT assay. This colorimetric procedure measures conversion of the MTT reagent (a tetrazoleum salt) to formazan by mitochondria. Formazan production was quantified by spectrophotometric measurement at 570 nm and was proportional to viable cell number. Cells were cultured and treated with different concentrations of the agent(s) for 48 hours. Following treatment, 50 μl of MTT was added to each well and allowed to incubate for 1-3 hours at 37° C. Each well was aspirated and 200 μl of DMSO was added to each well to dissolve the formazan. […] Lumefantrine was tested as potential autophagy inhibitor at final concentrations between one to forty micromolar. […] The ER stressor drugs tested and their final concentrations were GleevecTM (imatinib, Novartis, final 350 nM), […] (nilotinib, Novartis, final 35 nM) or ZolinzaTM (suberoylanilide hydroxamic acid, Merck, final 1 μM).
For orientation: Formazan colour is commonly taken as a measure of viable cells.

Test [2] deals with Ba/F3 cells expressing wild-type BCR-ABL (p210). As to the kind of experiment: MTT cell viability assay, Ba/F3 cells expressing wild-type (p210) Bcr-Abl. The format is cell-based, Murine. The note with it: for potency relative to chloroquine (cell viability): chloroquine 25 μM control.
Description: as §1

Take `CCCCN(CCCC)CC(O)c1cc(Cl)cc2c1-c1ccc(Cl)cc1/C2=C\c1ccc(Cl)cc1` (racemic) [lumefantrine, 2-(dibutylamino)-1-[(9E)-2,7-dichloro-9-(4-chlorobenzylidene)-9H-fluoren-4-yl]ethanol]: the “potency relative to chloroquine (cell viability)” value in test [1] (SAHA experiment, Ba/F3 T315I) was “equipotent with chloroquine”; in test [1] (imatinib experiment, Ba/F3 T315I), “equipotent with chloroquine”; in test [1] (nilotinib experiment, Ba/F3 T315I), “equipotent with chloroquine”; in test [2] (SAHA experiment, Ba/F3 p210) it was “equipotent with chloroquine”; in test [2] (imatinib experiment, Ba/F3 p210), “equipotent with chloroquine”; in test [2] (nilotinib experiment, Ba/F3 p210), “equipotent with chloroquine”. For the same compound, the “cell viability (MTT, OD 570 nm)” value is listed as “dose-dependent reductions in the cell viability” in test [1] (lumefantrine 1-40 micromolar, with and without SAHA 1 μM, 48 hours, Ba/F3 T315I (FIG. 3)); “dose-dependent reductions in the cell viability” in test [2] (lumefantrine 1-40 micromolar, with and without SAHA 1 μM, 48 hours, Ba/F3 p210 (FIG. 2)). The “enhancement of suberoylanilide hydroxamic acid (SAHA) effect on proliferation/viability” value in test [1] (with SAHA 1 μM, 48 hours, Ba/F3 T315I) is listed as “enhanced the suberoylanilide hydroxamic acid drug response”; in test [2] (with SAHA 1 μM, 48 hours, Ba/F3 p210) it was “enhanced the suberoylanilide hydroxamic acid drug response”. The “augmentation of imatinib effects on cell viability” value is reported as “the only effects on viability are those generated by lumefantrine alone” in test [1] (with imatinib 350 nM, 48 hours, Ba/F3 T315I (FIG. 5)) and “augments the imatinib effects” in test [2] (with imatinib 350 nM, 48 hours, Ba/F3 p210 (FIG. 4)). Further, the “augmentation of nolotinb effects on cell viability” value is “the only effects on viability are those generated by lumefantrine alone” in test [1] (with nilotinib 35 nM, 48 hours, Ba/F3 T315I (FIG. 7)) and “augments the nolotinb effects” in test [2] (with nilotinib 35 nM, 48 hours, Ba/F3 p210 (FIG. 6)).
